Reference: US20060003988A1, “Compounds capable of inhibiting immunocyte-related allergic immune reactions” (priority 2002, published 2006)
Structures can show the parent of a compound that is named as a salt.

Key:
T cells = assay: T cell proliferation (3H-thymidine incorporation) via different costimulation pathways; format: cell-based, human; details: stimulation on CD3 combined with CD26, CD28 or PMA; all concentrations used
Experimental: The first pathway was PMA, the second pathway stimulation on CD28 that is one of the representative T cell costimulation molecules, and the third pathway stimulation on CD26 that is expressed on CD4^+ memory T cells. The simulation on CD3 was applied together with all of these stimulations. The stimulation on CD3, CD26, and CD28 was performed using monoclonal antibodies OKT3, 1F7 (Morimoto C et al., 1989, supra), and 4B10 (immi CD et al., 1991, supra), respectively. OKT3 was purchased from the American Tissue Culture Collection (ATCC, Rockville, Md.), while 4B10 and 1F7 were purified from mouse ascites of hybridomas established in the present inventors' laboratory (Gimmi C D et al., 1991, supra; Morimoto C et al., 1989, supra). […]
Phosphate-buffer saline (PBS) (100 μl) containing either one of the monoclonal antibodies, OKT3 (0.05 μg/ml), 1F7 (1 μg/ml), or 4B10 (2 μg/ml), was coated in triplicate according to a known method (Dang N H et al., 1990, supra) on flat-bottomed 96-well plates (Coster, Cambridge, Mass.), and the plates were then incubated overnight at 4° C. […] The cells were stimulated for eight hours with 1 μCi ^3H-thymidine (ICN Radiochemicals, Irvine, Calif.) per well, recovered on a glass fiber filter (Wallac, Turku, Finland) to quantify the incorporated radioactivity with a liquid scintillation counter (Wallac).

[1] = test system: IL-2 production from peripheral blood T cells; assay: IL-2 production from peripheral blood T cells (ELISA); format: cell-based, human; details: each costimulation condition; 24 hours; up to maximum concentration (10 μM ebastine, 100 μM carebastine)
Experimental: (§1) In order to analyze whether or not H1 blockers have an inhibitory effect on cytokine production induced by the various costimulations described above, the present inventors measured Th1 type cytokines (IL-2, and IFN-γ) in the culture supernatant induced by the various costimulations described above.
(§2) The antibody-coated plates and T cells were prepared similarly as in Example 1 except that the OKT3 concentration was 0.5 μg/ml. The cytokine production by T cells was analyzed in triplicate using 96-well flat-bottomed plates by the same method employed in the T cell proliferation analysis described above. After culturing for 24 hours, the culture supernatant was tested using ELISA kit (IL-2: Biosource International, Camarillo, Calif.; IFN-γ: R&D systems, Minneapolis, Minn.) to quantify IL-2 and IFN-γ.

[2] = test system: IFN-γ production from peripheral blood T cells; assay: IFN-γ production from peripheral blood T cells (ELISA); format: cell-based, human; details: each costimulation condition; 24 hours; ebastine 0.1 μM to 10 μM, carebastine 1 μM to 100 μM
Experimental: as §1, §2

[3] = test system: IL-4 production from peripheral blood T cells; assay: IL-4 production from peripheral blood T cells (ELISA); format: cell-based, human
Experimental: as §2
(§3) Th2 type CD4 T cells play an important role in allergic diseases. […] This analysis was performed similarly as in Example 2 except that ELISA (IL-4: Biosource International, Camarillo, Calif.; IL-5: R&D systems, Minneapolis, Minn.) was used to quantify IL-4 and IL-5.

[4] = test system: IL-5 production from peripheral blood T cells; assay: IL-5 production from peripheral blood T cells (ELISA); format: cell-based, human; details: for effect on IL-5 production: each costimulation condition, concentration-dependent
Experimental: as §2, §3

[5] = test system: IL-6 production from peripheral blood T cells; assay: IL-6 production from peripheral blood T cells (ELISA); format: cell-based, human; details: for effect on IL-6 production from T cells: each costimulation condition
Experimental: as §2
(§4) The present inventors analyzed the effects of H1 blockers on the production of inflammatory cytokines, such as IL-6 and TNF-α, from T cells due to the various costimulation pathways described above. This analysis was performed similarly as in Example 2 above except for the use of an ELISA kit for measuring IL-6 and TNF-α (R&D systems, Minneapolis, Minn.).

[6] = test system: TNF-α production from peripheral blood T cells; assay: TNF-α production from peripheral blood T cells (ELISA); format: cell-based, human; details: for effect on TNF-α production from T cells: each costimulation condition
Experimental: as §2, §4

PHA-stimulated T cells [7] = assay: Transendothelial migration of PHA-stimulated T cells through ECV304 monolayer; format: cell-based, human; details: compound present during migration, eight hours
Experimental: Since fresh resting-stage T cells hardly migrate by permeating a monolayer of endothelial cells, these T cells were activated using PHA (10 μg/ml) prior to performing transendothelial migration analysis.
Specifically, the analysis of transendothelial migration was performed by slightly modifying a known method (Iwata S, Yamaguchi N, Munakata Y, Ikushima H, Lee J F, Hosono O, Schlossman S F, Morimoto C. “CD26/DPPIV differentially regulates the chemotaxis of T cells and monocytes toward RANTES. Possible mechanism for the switch from innate to acquired immune response.” Int Immunol. 11:417-426, 1999). Human endothelial cell strain ECV304 was obtained from the American Tissue Culture Collection (ATCC; Rockville, Md.) and cultured for 48 hours on Transwell cell culture inserts (Corning Costar, Cambridge, Mass.) with a pore size of 3.0 μm. The cells were loaded onto a 24-well plastic plate for cell culture (FALCON), and mixed with H1 blockers at various concentrations using Transwell assay medium (RPMI1640 medium, BSA 0.6%, Penicillin G/Streptomycin 1%, HEPES 50 mM). Two-hundred μl of PHA-stimulated T cells (1×10^7/ml) were then placed in the upper chamber and 600 μl of assay medium was placed in the lower chamber, and migration was performed for eight hours at 37° C. under 5% CO2. After recovery of the cells, the number of cells was counted for one minute by flow cytometry (FACSCalibur, Nippon Becton-Dickinson, Tokyo, Japan).

[8] = test system: IL-6 production from macrophages; assay: IL-6 production from macrophages upon LPS stimulation (ELISA); format: cell-based, human
Excerpt: (§5) Specifically, in order to produce IL-6 and THF-α from macrophages, peripheral blood mononuclear cells were adhered to a plastic plate to isolate and recover macrophages.

[9] = test system: TNF-α production from macrophages; assay: TNF-α production from macrophages upon LPS stimulation (ELISA); format: cell-based, human
Excerpt: as §5

[10] = in vivo; cited from earlier work
[11] = test system: histamine-induced contraction in trachea samples; details: trachea samples excised from guinea pigs; read-out: IC50 of the effects on histamine-induced contraction; cited from earlier work
H2 receptors [12] = target: T1, H2 receptors (Homo sapiens, UniProt P25021); details: read-out: IC50 in the inhibition of ligand binding to H2 receptors; cited from earlier work
T1 sequence (P25021 whole entry): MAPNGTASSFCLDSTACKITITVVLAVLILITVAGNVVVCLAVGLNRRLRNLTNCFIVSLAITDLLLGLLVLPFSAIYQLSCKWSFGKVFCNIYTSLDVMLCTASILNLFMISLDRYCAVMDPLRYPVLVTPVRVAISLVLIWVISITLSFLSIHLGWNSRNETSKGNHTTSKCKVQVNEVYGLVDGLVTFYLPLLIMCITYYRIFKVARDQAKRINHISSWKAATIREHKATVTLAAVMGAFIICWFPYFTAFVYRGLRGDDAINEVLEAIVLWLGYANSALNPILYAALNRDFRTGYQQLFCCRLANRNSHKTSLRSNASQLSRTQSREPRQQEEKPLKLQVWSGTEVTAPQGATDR

[13] = dose increased to five times from that used for the treatment; cited from earlier work
PHA-stimulated T cells [14] = assay: Adhesion of PHA-stimulated T cells to endothelial cells (fluorescence microscopy); details: 1.0 μM to 5.0 μM; six hours; dose-dependent
Excerpt: After six hours, the culture dish was washed three times with PBS.

[15] = target: human recombinant H1 receptors (Homo sapiens, UniProt P35367); details: read-out: IC50 of inhibiting ligand binding to H1 receptors; cited from earlier work
Sequence of human recombinant H1 receptors (P35367 whole entry): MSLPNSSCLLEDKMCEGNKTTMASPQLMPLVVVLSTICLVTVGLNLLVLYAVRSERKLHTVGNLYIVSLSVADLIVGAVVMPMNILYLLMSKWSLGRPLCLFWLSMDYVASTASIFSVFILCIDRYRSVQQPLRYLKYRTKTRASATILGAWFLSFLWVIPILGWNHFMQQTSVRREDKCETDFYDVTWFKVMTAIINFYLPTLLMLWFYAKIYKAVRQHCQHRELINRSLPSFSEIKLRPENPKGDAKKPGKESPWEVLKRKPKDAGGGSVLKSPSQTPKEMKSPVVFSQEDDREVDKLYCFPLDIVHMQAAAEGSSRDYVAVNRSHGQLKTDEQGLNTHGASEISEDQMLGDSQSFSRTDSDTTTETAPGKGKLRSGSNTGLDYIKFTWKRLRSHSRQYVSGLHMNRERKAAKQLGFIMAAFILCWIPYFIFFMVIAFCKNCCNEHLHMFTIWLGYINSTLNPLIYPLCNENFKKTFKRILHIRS

[16] = according to the Interview Form; cited from earlier work
H2 receptors [17] = target: T1, H2 receptors; details: at maximum concentration; cited from earlier work
[18] = each costimulation condition, concentration-dependent

Row | SMILES | effect on IL-2 production [1] | effect on IFN-γ production [2] | effect on IL-4 production [3, 18] | effect on IL-5 production [4] | effect on IL-6 production from T cells [5] | effect on TNF-α production from T cells [6] | effect on T cell migration (PHA-stimulated T cells [7]) | effect on IL-6 production from macrophages ([8]; eight hours) | effect on TNF-α production from macrophages ([9]; eight hours) | maximum blood concentration [10] [µM] | IC50 [11] [nM] | IC50 (H2 receptors [12]) [nM] | further results
1 | CN1CCC(=C2c3ccccc3CC(=O)c3sccc32)CC1 [ketotifen fumarate] | did not have a clear effect | did not have a clear effect | did not have a clear effect | did not have a clear effect | did not have a clear effect | did not have a clear effect | did not have a clear effect | no inhibition | no inhibition | 0.01 | 2.5 | 2200 ± 450 | effect on T cell proliferation (T cells): hardly inhibited
2 | CC(C)(C)c1ccc(C(=O)CCCN2CCC(OC(c3ccccc3)c3ccccc3)CC2)cc1 [ebastine, 4-diphenylmethoxy-1[3-(4-terbutyl-benzoyl)-propyl]piperidine] | did not inhibit | did not have a clear effect | inhibited | inhibited | inhibited | inhibited |  | suppressed | suppressed |  |  |  | effect on IL-4 production ([3]; 10 μM): nearly completely inhibited; suppression of IL-4 production ([3]; 20 μM, all donors): 100%; suppression of IL-5 production ([4]; 20 μM, all donors): 100%; suppression of IL-6 production from T cells ([5]; 10 μM to 20 μM): 100%; suppression of TNF-α production from T cells ([6]; 10 μM to 20 μM): 100%; suppression of IL-6 production from macrophages ([8]; 1 μM): ≥ 50%; effect on IL-6 production from macrophages ([8]; 10 μM): nearly completely inhibited; suppression of TNF-α production from macrophages ([9]; 1 μM): ≥ 50%; effect on TNF-α production from macrophages ([9]; 10 μM): nearly completely inhibited; effect on QT interval [13]: not to affect; adhesion of PHA-stimulated T cells to endothelial cells (PHA-stimulated T cells [14]): suppress
3 | O=C(O)COCCN1CCN(C(c2ccccc2)c2ccc(Cl)cc2)CC1 (centres unmarked) [cetirizine hydrochloride] | did not have a clear effect | did not have a clear effect | did not have a clear effect | did not have a clear effect | did not have a clear effect | did not have a clear effect |  | no inhibition | no inhibition |  |  |  | 
4 | NC1=NCC2c3ccccc3Cc3ccccc3N12 (centres unmarked) [epinastine hydrochloride, 3-amino-9,13b-dihydro-1H-dibenz(c,f)imidazol(1,5-a)azepine hydro-chloride] | suppressed | suppressed | inhibited | inhibited | no clear effect | no clear effect | did not have a clear effect | no inhibition | no inhibition | 0.1 |  | 640 ± 62 | IC50 [15]: 1.1 ± 0.16 nM; efficacy in the improvement of bronchial asthma to a medium degree or greater [16]: 47.0%
5 | CC(C)(C)c1ccc(C(O)CCCN2CCC(C(O)(c3ccccc3)c3ccccc3)CC2)cc1 (centres unmarked) [terfenadine] |  |  |  |  |  |  |  |  |  |  |  |  | inhibition rate to [3H]-tiotidine (H2 receptors [17]): 29%
6 | CC(C)(C(=O)O)c1ccc(C(=O)CCCN2CCC(OC(c3ccccc3)c3ccccc3)CC2)cc1 [carebastine, 4-[4-[4-(di-phenylmethoxy)-1-piperidinyl]-1-oxobutyl]-α, α-di-methylbenzeneacetic acid] | did not inhibit | did not have a clear effect | inhibited | inhibited | inhibited | inhibited | suppressed | suppressed | suppressed | 0.1 | 120 |  | 
